Among the data in ChEMBL document CHEMBL5523710 (Eur J Med Chem, 2024) are IC50, Activity and inhibition values, retold here.

The source made the active and inactive calls. The calls are words filed in the database; no cut-off is given here.

The subject of experiment [1] is Jurkat. Kind of experiment: Cytotoxicity against human Jurkat cells measured for 72 hrs by celltiter-glo assay. (Cellular ATP, detected with luciferase, serves as a proxy for viable cell number.)
Experiment [2] relates to HAL-01. Kind of experiment: Cytotoxicity against human HAL-01 cells measured for 72 hrs by celltiter-glo assay. The conditions noted are these: HAL-01, 72 h.
Experiment [3] deals with HL-60. In words: Cytotoxicity against human HL-60 cells measured for 72 hrs by celltiter-glo assay. The conditions noted are these: HL-60, 72 h.
In experiment [4] the target is Histone deacetylase 1 (Homo sapiens, UniProt Q13547). In words: Inhibition of C-terminal his/FLAG-tagged full length human recombinant HDAC1 (1 to 482 residues) expressed in Sf9 insect cells using ZMAL-(Z-Lys(Ac)-AMC as substrate measured for 90 mins by microplate reader analysis.
Sequence of Histone deacetylase 1 (Q13547 whole entry, the tested form may be a part): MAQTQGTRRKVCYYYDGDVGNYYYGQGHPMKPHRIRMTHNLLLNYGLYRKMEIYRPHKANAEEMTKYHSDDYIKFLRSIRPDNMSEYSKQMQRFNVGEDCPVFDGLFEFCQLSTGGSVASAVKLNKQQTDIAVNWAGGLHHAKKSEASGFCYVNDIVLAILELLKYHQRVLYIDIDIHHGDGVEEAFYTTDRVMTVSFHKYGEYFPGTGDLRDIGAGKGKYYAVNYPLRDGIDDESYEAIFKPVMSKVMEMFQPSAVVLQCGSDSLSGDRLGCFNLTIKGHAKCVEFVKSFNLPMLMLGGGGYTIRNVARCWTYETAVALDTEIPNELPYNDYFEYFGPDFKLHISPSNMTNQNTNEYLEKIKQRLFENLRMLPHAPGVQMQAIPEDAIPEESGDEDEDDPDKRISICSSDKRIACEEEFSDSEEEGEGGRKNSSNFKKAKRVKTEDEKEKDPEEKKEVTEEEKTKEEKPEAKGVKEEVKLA
Experiment [5] deals with MOLM-13. Kind of experiment: Synergistic cytotoxicity against human MOLM-13 cells measured after 72 hrs in presence of decitabine by celltiter-glo assay. In kind it is functional, cell-based.
Experiment [6] deals with HL-60. Kind of experiment: Induction of apoptosis in human HL-60 cells assessed as increase in early apoptotic cells at 1 to 5 uM measured for 48 hrs by Annexin/PI staining based analysis. In kind it is functional, cell-based. The settings on record: dose 1-5 µM.
Experiment [7] concerns the target Histone deacetylase 3/Nuclear receptor corepressor 2 (HDAC3/NCoR2) (Homo sapiens, UniProt O15379). Kind of experiment: Inhibition of C-terminal his-tagged human recombinant HDAC3 (1 to 428 residues)/N-terminal GST-tagged human recombinant NCOR2 (395 to 489 residues) expressed in Sf9 insect cells using ZMAL-(Z-Lys(Ac)-AMC as substrate measured for 90 mins by microplate reader analysis.

For experiment [8], the system named is HL-60. The conditions noted are these: Homo sapiens, dose 24.0 nM, time 24.0 hrs.
Experiment [9] deals with HL-60. Kind of experiment: Induction of apoptosis in human HL-60 cells assessed as increase in dead cells at 1 to 5 uM measured for 48 hrs by Annexin/PI staining based analysis. In kind it is functional, cell-based. The conditions noted are these: dose 1-5 µM.
The target of experiment [10] is Histone deacetylase 2 (Homo sapiens, UniProt Q92769). In words: biochemical. In kind it is cell-based, Sf9.
Sequence of Histone deacetylase 2 (Q92769 whole entry): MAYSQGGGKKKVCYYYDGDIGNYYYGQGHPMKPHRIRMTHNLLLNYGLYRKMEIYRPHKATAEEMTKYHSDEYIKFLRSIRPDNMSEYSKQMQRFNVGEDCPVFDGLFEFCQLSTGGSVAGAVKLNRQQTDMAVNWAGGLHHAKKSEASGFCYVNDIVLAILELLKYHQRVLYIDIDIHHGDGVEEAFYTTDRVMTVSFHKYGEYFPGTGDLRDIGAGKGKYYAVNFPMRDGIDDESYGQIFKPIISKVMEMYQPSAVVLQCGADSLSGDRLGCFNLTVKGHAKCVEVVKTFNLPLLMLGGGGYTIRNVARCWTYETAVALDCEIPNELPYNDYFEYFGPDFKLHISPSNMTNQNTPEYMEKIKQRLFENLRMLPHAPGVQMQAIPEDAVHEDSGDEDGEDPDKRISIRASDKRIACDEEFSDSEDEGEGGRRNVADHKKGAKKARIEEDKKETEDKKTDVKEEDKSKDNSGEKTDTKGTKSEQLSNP
Description: Inhibition of C-terminal FLAG-tagged human recombinant HDAC2 (1 to 488 residues) expressed in Sf9 insect cells using ZMAL-(Z-Lys(Ac)-AMC as substrate measured for 90 mins by microplate reader analysis
In experiment [11] the test system is HL-60. In words: Induction of apoptosis in human HL-60 cells assessed as increase in late apoptotic cells at 1 to 5 uM measured for 48 hrs by Annexin/PI staining based analysis. In kind it is functional, cell-based. The conditions noted are these: dose 1-5 µM.
The test system of experiment [12] is HL-60. Kind of experiment: Induction of apoptosis in human HL-60 cells assessed as viable cells at 1 to 5 uM measured for 48 hrs by Annexin/PI staining based analysis. In kind it is functional. The settings on record: dose 1-5 µM.
Experiment [13] relates to HL-60. The conditions noted are these: Homo sapiens, dose 24.0 nM, time 24.0 hrs. This is another data set of the same source.
In experiment [14] the test system is HAL-01. In words: Synergistic cytotoxicity against human HAL-01 cells measured after 72 hrs in presence of decitabine by celltiter-glo assay. Format: functional, cell-based.
In experiment [15] the test system is Jurkat. Kind of experiment: Synergistic cytotoxicity against human Jurkat cells measured after 72 hrs in presence of decitabine by celltiter-glo assay. In kind it is functional, cell-based.

Sequence of Histone deacetylase 3/Nuclear receptor corepressor 2 (HDAC3/NCoR2) (O15379 whole entry, the tested form may be a part): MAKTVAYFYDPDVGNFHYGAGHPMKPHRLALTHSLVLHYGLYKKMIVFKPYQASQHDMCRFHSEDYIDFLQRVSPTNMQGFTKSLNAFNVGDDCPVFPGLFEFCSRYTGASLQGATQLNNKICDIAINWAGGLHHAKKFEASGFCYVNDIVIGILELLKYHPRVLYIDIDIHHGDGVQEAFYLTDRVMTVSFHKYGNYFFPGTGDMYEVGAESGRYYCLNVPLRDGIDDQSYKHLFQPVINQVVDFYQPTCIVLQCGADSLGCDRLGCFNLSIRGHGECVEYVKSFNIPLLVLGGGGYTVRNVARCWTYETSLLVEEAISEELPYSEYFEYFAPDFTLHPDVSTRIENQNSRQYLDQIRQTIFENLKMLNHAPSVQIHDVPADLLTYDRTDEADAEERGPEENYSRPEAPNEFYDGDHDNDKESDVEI
Sequence of Histone deacetylase 3/Nuclear receptor corepressor 2 (HDAC3/NCoR2) (Q9Y618 whole entry, further chain, the tested form may be a part): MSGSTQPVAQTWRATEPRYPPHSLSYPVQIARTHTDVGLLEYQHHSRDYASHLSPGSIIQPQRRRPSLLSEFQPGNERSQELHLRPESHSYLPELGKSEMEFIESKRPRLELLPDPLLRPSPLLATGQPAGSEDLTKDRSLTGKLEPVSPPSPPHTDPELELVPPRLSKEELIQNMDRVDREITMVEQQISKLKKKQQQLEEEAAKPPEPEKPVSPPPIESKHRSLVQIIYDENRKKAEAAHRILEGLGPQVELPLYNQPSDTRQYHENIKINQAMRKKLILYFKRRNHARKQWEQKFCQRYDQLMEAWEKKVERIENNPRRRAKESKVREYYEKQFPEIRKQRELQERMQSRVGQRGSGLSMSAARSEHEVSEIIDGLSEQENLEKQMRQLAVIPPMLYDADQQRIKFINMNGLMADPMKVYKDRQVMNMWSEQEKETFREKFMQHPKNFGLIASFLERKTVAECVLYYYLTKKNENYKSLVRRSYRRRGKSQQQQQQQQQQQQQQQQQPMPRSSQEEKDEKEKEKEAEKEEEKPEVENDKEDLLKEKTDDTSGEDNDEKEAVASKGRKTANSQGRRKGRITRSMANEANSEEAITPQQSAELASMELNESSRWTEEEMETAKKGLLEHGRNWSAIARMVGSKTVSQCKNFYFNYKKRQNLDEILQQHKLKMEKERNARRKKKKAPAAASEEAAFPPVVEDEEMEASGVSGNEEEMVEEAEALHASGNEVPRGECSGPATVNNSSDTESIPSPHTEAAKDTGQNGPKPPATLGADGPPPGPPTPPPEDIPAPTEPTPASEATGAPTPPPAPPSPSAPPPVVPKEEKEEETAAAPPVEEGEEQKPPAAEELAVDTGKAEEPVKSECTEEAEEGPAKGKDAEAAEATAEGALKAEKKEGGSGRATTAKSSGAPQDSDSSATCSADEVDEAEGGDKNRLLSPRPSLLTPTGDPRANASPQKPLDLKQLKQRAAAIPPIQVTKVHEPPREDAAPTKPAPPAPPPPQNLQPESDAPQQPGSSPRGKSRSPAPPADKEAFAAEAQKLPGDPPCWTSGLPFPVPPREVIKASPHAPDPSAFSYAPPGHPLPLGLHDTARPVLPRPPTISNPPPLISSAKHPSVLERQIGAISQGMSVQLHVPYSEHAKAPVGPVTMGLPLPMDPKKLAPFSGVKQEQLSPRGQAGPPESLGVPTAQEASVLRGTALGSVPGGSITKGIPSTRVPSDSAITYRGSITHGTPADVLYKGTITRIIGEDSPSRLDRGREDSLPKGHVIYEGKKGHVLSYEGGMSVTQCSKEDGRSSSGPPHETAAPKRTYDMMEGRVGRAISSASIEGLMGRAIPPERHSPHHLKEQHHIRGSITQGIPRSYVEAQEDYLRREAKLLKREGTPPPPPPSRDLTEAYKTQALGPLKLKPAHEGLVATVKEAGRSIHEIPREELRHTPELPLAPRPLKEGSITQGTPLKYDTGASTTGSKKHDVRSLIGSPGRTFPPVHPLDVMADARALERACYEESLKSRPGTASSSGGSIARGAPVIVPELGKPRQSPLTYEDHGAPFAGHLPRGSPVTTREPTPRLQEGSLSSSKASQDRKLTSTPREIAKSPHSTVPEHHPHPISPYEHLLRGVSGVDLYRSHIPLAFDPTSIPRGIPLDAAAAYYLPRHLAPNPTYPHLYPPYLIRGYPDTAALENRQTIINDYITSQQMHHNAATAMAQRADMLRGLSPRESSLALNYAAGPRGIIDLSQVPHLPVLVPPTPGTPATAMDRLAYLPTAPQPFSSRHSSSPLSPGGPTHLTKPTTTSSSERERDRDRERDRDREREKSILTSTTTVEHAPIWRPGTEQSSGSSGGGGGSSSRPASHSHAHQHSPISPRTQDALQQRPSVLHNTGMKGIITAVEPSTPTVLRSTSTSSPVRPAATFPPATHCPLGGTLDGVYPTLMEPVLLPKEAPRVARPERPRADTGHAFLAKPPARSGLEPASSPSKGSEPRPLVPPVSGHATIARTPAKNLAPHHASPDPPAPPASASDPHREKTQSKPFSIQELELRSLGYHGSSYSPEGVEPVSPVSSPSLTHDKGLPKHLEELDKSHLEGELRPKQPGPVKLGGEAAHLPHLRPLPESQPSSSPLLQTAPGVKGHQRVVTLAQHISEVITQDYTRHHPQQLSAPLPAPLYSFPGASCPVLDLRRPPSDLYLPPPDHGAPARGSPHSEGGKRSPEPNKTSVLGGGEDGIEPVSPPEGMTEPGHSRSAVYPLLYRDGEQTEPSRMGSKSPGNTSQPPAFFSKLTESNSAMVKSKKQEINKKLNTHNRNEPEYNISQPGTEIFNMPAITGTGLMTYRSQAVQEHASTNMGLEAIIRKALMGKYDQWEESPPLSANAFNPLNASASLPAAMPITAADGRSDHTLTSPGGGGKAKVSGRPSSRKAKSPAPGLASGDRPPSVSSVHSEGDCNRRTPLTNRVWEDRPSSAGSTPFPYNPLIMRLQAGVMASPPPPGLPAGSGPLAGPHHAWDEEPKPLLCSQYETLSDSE

As a reminder, the IC50 is the concentration at which inhibition is half-maximal. As for `O=C(CN(C(=O)Cc1ccc(C(=O)NO)cc1F)c1ccccc1C(F)(F)F)NC1CCCCC1`, the IC50 in experiment [1] is 2280 nM; in experiment [2], 1790 nM; in experiment [3], 1610 nM.
`O=C(CN(C(=O)Cc1ccc(C(=O)NO)cc1)c1ccccc1)NCc1ccccc1`: the IC50 is 2290 nM in [1], 283 nM in [4], 2150 nM in experiment [2] and 2310 nM in [3].
Usually inhibition stands for the relative decrease from the control value, in per cent. As to `Cc1ccc(N(CC(=O)NC2CCCCC2)C(=O)Cc2ccc(C(=O)NO)cc2)cc1`, the result in [5], in [6], in experiment [9], in [11] and in [14] was Active. Besides, the IC50 in experiment [1] came to 410 nM; in experiment [7], 42 nM; in experiment [2] it was 230 nM; in experiment [10], 112 nM; in experiment [3], 360 nM. Further, the inhibition entry in [8] is “Active”. Further, the Activity in [12] was found to be 50%. In addition, in [13], the inhibition came out at 2.67%.
As to `O=C(CN(C(=O)Cc1ccc(C(=O)NO)cc1F)c1ccccc1)NC1CCCCC1`, the IC50 in [1] turned out to be 2420 nM; in experiment [2], 2080 nM; in [3], 1340 nM.
The like results for `CCc1ccccc1N(CC(=O)NC1CCCCC1)C(=O)Cc1ccc(C(=O)NO)cc1` were, in that order, 2280 nM, 1430 nM and 1340 nM.
The matching figures for `O=C(CN(C(=O)Cc1ccc(C(=O)NO)cc1)c1ccccc1C(F)(F)F)NC1CCCCC1`: 4580 nM, 3030 nM and 2090 nM.
As for `CCCCNC(=O)CN(C(=O)Cc1ccc(C(=O)NO)cc1)c1ccccc1`, the results for the IC50 in [1], in [2] and in experiment [3] were 4030 nM, 3120 nM and 2680 nM, respectively.
As for `CC(C)(C)NC(=O)CN(C(=O)Cc1ccc(C(=O)NO)cc1)c1ccccc1`, the IC50 is 8310 nM in [1], 4910 nM in experiment [2] and 5990 nM in [3].
On to `Cc1ccccc1N(CC(=O)NC1CCCCC1)C(=O)Cc1ccc(C(=O)NO)cc1`, for which the IC50 stood at 2520 nM in experiment [1], 1510 nM in [2] and 2310 nM in [3].
The like results for `Cc1cccc(N(CC(=O)NC2CCCCC2)C(=O)Cc2ccc(C(=O)NO)cc2)c1` were, in that order, 2590 nM, 1890 nM and 1750 nM.
Regarding `Cc1ccccc1N(CC(=O)NC1CCCCC1)C(=O)Cc1ccc(C(=O)NO)cc1F`, the IC50 in experiment [1] stood at 3080 nM; in experiment [7] it was 520 nM; in [2], 2320 nM; in [10] it was 787 nM; in experiment [3] it was 2040 nM. Besides, the result in experiment [15] and in experiment [14] was inactive.
For `CCc1ccccc1N(CC(=O)NC1CCCCC1)C(=O)Cc1ccc(C(=O)NO)cc1F`, the IC50 amounted to 3210 nM in [1], 1440 nM in experiment [2] and 1510 nM in experiment [3].
As to `O=C(CN(C(=O)Cc1ccc(C(=O)NO)cc1)c1ccccc1)NC1CCCCC1`, the figures for the IC50 in experiment [1], in experiment [2] and in experiment [3] were 2540 nM, 2020 nM and 1830 nM, respectively.
